Structures can show the parent of a compound that is named as a salt.
Experiments:
[1] = molecular target: T1, baculovirus-expressed ALK (Homo sapiens, UniProt Q9UM73); assay: ALK Kinase Assay (ELISA-type, time-resolved fluorescence); assay type: biochemical; settings: ALK kinase inhibition, 1 μM ATP (Km level); read-out: ALK Activity
T1 construct: host or cells: baculovirus expression system
Method in brief: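 Wells were coated with phospholipase C-γ at 10 μg/mL in Tris-buffered saline. Adding 30 ng/ml enzyme started the reaction, which ran at 37° C for 15 minutes before Eu-N1 PT66 antibody detection. Percent inhibition versus log10 concentration gave IC50 by variable-slope fit.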

[2] = molecular target: T2, c-Met (cytoplasmic domain) (Homo sapiens, UniProt P08581); assay: c-Met Kinase Assay (same methods as for ALK, with modifications); assay type: biochemical; settings: c-Met kinase inhibition, 1 μM ATP (Km level); read-out: cMet Activity
T2 construct: 10 ng/mL c-Met (cytoplasmic domain, Invitrogen Corporation #PV3143); purchased Invitrogen Corporation PV3143
T2 sequence (P08581 956-1390 limits assumed): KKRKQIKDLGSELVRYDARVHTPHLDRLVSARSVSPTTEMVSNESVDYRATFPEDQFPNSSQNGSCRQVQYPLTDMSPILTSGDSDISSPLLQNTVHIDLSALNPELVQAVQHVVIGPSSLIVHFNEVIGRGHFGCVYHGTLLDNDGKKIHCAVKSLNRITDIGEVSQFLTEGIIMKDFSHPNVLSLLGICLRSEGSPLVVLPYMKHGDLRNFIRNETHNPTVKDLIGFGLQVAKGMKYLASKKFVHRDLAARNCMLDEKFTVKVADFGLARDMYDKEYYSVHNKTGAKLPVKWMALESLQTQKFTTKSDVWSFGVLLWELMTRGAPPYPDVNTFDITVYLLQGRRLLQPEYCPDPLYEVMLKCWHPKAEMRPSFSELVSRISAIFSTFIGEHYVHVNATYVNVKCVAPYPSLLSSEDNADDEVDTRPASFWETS
Method in brief: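 Steps: coat wells with PLC-γ (10 μg/mL, Tris-buffered saline); add 10 ng/mL c-Met cytoplasmic domain to initiate; incubate 15 min, 37° C; detect phosphoproduct via Eu-N1 PT66 antibody.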

T1 sequence (Q9UM73 19-1620): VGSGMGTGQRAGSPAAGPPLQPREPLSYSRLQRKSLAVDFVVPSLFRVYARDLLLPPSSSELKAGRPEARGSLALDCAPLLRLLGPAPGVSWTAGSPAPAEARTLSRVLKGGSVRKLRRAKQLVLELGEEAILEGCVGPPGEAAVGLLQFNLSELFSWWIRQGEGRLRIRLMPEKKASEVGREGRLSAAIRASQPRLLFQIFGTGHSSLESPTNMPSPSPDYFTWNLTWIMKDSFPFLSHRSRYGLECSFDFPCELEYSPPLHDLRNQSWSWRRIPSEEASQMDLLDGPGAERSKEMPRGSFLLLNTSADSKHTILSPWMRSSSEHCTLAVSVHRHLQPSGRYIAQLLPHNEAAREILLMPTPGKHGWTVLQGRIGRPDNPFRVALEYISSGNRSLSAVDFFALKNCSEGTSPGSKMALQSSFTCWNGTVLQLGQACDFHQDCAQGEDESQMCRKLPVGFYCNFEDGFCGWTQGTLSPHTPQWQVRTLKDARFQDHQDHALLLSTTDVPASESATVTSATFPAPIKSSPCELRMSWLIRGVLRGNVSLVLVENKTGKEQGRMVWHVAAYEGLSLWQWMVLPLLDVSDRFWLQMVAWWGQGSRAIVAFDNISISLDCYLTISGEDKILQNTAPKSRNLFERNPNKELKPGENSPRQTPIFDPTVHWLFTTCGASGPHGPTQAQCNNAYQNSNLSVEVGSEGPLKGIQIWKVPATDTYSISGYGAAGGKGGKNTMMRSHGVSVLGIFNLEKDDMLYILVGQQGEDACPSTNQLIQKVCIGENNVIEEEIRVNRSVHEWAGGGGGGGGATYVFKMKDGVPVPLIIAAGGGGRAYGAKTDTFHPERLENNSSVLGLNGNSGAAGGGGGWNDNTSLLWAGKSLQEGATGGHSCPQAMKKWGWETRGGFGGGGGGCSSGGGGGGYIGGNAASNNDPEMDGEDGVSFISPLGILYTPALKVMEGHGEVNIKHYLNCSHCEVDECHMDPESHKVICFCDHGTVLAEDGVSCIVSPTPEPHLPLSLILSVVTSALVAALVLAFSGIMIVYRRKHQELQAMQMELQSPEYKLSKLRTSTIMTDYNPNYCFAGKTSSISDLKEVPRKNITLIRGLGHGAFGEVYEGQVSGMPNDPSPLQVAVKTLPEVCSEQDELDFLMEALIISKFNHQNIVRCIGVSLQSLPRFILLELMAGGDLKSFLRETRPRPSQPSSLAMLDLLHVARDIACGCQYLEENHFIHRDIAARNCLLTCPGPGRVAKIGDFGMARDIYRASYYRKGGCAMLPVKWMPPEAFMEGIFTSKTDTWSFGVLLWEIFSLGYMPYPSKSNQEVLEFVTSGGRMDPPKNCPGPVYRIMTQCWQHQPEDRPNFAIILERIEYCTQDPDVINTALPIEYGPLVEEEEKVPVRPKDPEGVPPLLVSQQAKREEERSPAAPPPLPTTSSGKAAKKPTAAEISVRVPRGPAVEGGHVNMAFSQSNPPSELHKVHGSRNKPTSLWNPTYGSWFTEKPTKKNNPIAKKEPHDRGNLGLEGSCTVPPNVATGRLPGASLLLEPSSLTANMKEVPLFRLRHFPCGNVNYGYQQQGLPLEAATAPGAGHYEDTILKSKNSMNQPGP

Row | SMILES | IC50 [1] [nM] | IC50 [2] [nM]
1 | CS(=O)(=O)N[C@@H]1CCCC[C@H]1Nc1nc(Nc2ccc3c(c2)CCN(C[C@@H](O)C(F)(F)F)CC3)ncc1Cl [Example 449, N-((1R,2R)-2-{5-Chloro-2-[3-((R)-3,3,3-trifluoro-2-hydroxy-propyl)-2,3,4,5-tetrahydro-1H-benzo[d]azepin-7-ylamino]-pyrimidin-4-ylamino}-cyclohexyl)-methanesulfonamide] | < 100 | 100 to 1000
2 | COCCN1CCc2ccc(Nc3ncc(Cl)c(N[C@@H]4CCCC[C@H]4NC(=O)C(F)(F)F)n3)cc2CC1 [Example 450, N-((1R,2R)-2-{5-Chloro-2-[3-(2-methoxy-ethyl)-2,3,4,5-tetrahydro-1H-benzo[d]azepin-7-ylamino]-pyrimidin-4-ylamino}-cyclohexyl)-2,2,2-trifluoro-acetamide] | < 100 | 100 to 1000
3 | COCCN1CCc2ccc(Nc3ncc(Cl)c(N[C@@H]4CCCC[C@H]4N)n3)cc2CC1 [Example 451, N*4*-((1R,2R)-2-Amino-cyclohexyl)-5-chloro-N*2*-[3-(2-methoxy-ethyl)-2,3,4,5-tetrahydro-1H-benzo[d]azepin-7-yl]-pyrimidine-2,4-diamine] | 100 to 1000 | 1000 to 10000
4 | COCCN1CCc2ccc(Nc3ncc(Cl)c(N[C@@H]4CCCC[C@H]4NS(=O)(=O)CC(F)(F)F)n3)cc2CC1 [Example 452, 2,2,2-Trifluoro-ethanesulfonic acid ((1R,2R)-2-{5-chloro-2-[3-(2-methoxy-ethyl)-2,3,4,5-tetrahydro-1H-benzo[d]azepin-7-ylamino]-pyrimidin-4-ylamino}-cyclohexyl)-amide] | < 100 | 1000 to 10000
5 | CCS(=O)(=O)N[C@@H]1CCCC[C@H]1Nc1nc(Nc2ccc3c(c2)CCN(CCOC)CC3)ncc1Cl [Example 453, Ethanesulfonic acid ((1R,2R)-2-{5-chloro-2-[3-(2-methoxy-ethyl)-2,3,4,5-tetrahydro-1H-benzo[d]azepin-7-ylamino]-pyrimidin-4-ylamino}-cyclohexyl)-amide] | < 100 | 1000 to 10000
6 | COCCN1CCc2ccc(Nc3ncc(Cl)c(N[C@@H]4CCCC[C@H]4NS(=O)(=O)C4CC4)n3)cc2CC1 [Example 454, Cyclopropanesulfonic acid ((1R,2R)-2-{5-chloro-2-[3-(2-methoxy-ethyl)-2,3,4,5-tetrahydro-1H-benzo[d]azepin-7-ylamino]-pyrimidin-4-ylamino}-cyclohexyl)-amide] | 100 to 1000 | 1000 to 10000
7 | CNC(=O)c1cccc(F)c1Nc1nc(Nc2ccc3c(c2)C2CCC(C3)N2CCOC)ncc1Cl (stereo not drawn) [Example 456, 2-{5-Chloro-2-[12-(2-methoxy-ethyl)-12-aza-tricyclo[7.2.1.0(2,7)]dodeca-2(7),3,5-trien-4-ylamino]-pyrimidin-4-ylamino}-3-fluoro-N-methyl-benzamide] | < 100 | < 100
8 | COCCN1C2CCC1c1cc(Nc3ncc(Cl)c(Nc4c(F)cccc4C(=O)OC(C)C)n3)ccc1C2 (stereo not drawn) [Example 457, 2-{5-Chloro-2-[12-(2-methoxy-ethyl)-12-aza-tricyclo[7.2.1.0(2,7)]dodeca-2(7),3,5-trien-4-ylamino]-pyrimidin-4-ylamino}-3-fluoro-benzoic acid isopropyl ester] | 100 to 1000 | 100 to 1000
9 | CNC(=O)c1cccc(Cl)c1Nc1nc(Nc2ccc3c(c2)N(C)CCNC3)ncc1Cl [Example 460, 3-Chloro-2-[5-chloro-2-(1-methyl-2,3,4,5-tetrahydro-1H-benzo[e][1,4]diazepin-8-ylamino)-pyrimidin-4-ylamino]-N-methyl-benzamide] | 100 to 1000 | < 100
10 | COc1cc2c(cc1Nc1ncc(Cl)c(N[C@@H]3CCCC[C@H]3NS(C)(=O)=O)n1)CCN(C[C@H](O)C(F)(F)F)CC2 [Example 461, N-((1R,2R)-2-{5-Chloro-2-[8-methoxy-3-((S)-3,3,3-trifluoro-2-hydroxy-propyl)-2,3,4,5-tetrahydro-1H-benzo[d]azepin-7-ylamino]-pyrimidin-4-ylamino}-cyclohexyl)-methanesulfonamide] | < 100 | > 10000
11 | COc1cc2c(cc1Nc1ncc(Cl)c(Nc3ccc(N4CCOCC4)cc3OC)n1)CCN(C[C@H](O)C(F)(F)F)CC2 [Example 462, (S)-3-{7-[5-Chloro-4-(2-methoxy-4-morpholin-4-yl-phenylamino)-pyrimidin-2-ylamino]-8-methoxy-1,2,4,5-tetrahydro-benzo[d]azepin-3-yl}-1,1,1-trifluoro-propan-2-ol] | < 100 | > 10000
12 | CN1CCNCc2ccc(Nc3ncc(Cl)c(Nc4ccccc4NS(C)(=O)=O)n3)cc21 [Example 471, N-{2-[5-Chloro-2-(1-methyl-2,3,4,5-tetrahydro-1H-benzo[e][1,4]diazepin-8-ylamino)-pyrimidin-4-ylamino]-phenyl}-methanesulfonamide hydrochloride] | < 100 | 1000 to 10000
13 | COC(=O)CN1CCN(C)c2cc(Nc3ncc(Cl)c(Nc4ccccc4NS(C)(=O)=O)n3)ccc2C1 [Example 472, {8-[5-Chloro-4-(2-methanesulfonylamino-phenylamino)-pyrimidin-2-ylamino]-1-methyl-1,2,3,5-tetrahydro-benzo[e][1,4]diazepin-4-yl}-acetic acid methyl ester] | < 100 | 100 to 1000
14 | CC(=O)OCCN1CCN(C)c2cc(Nc3ncc(Cl)c(Nc4ccccc4NS(C)(=O)=O)n3)ccc2C1 [Example 473, Acetic acid 2-{8-[5-chloro-4-(2-methanesulfonylamino-phenylamino)-pyrimidin-2-ylamino]-1-methyl-1,2,3,5-tetrahydro-benzo[e][1,4]diazepin-4-yl}-ethyl ester] | < 100 | 100 to 1000
15 | CN1CCN(S(C)(=O)=O)Cc2ccc(Nc3ncc(Cl)c(Nc4ccccc4NS(C)(=O)=O)n3)cc21 [Example 474, N-{2-[5-Chloro-2-(4-methanesulfonyl-1-methyl-2,3,4,5-tetrahydro-1H-benzo[e][1,4]diazepin-8-ylamino)-pyrimidin-4-ylamino]-phenyl}-methanesulfonamide] | < 100 | 100 to 1000
16 | CN1CCNCc2ccc(Nc3ncc(Cl)c(N[C@@H]4CCCC[C@H]4NS(C)(=O)=O)n3)cc21 [Example 475, N-{(1R,2R)-2-[5-Chloro-2-(1-methyl-2,3,4,5-tetrahydro-1H-benzo[e][1,4]diazepin-8-ylamino)-pyrimidin-4-ylamino]-cyclohexyl}-methanesulfonamide] | < 100 | 1000 to 10000
17 | CC(=O)OCCN1CCN(C)c2cc(Nc3ncc(Cl)c(N[C@@H]4CCCC[C@H]4NS(C)(=O)=O)n3)ccc2C1 [Example 476, Acetic acid 2-{8-[5-chloro-4-((1R,2R)-2-methanesulfonylamino-cyclohexylamino)-pyrimidin-2-ylamino]-1-methyl-1,2,3,5-tetrahydro-benzo[e][1,4]diazepin-4-yl}-ethyl ester] | < 100 | 1000 to 10000
18 | CN1CCN(S(C)(=O)=O)Cc2ccc(Nc3ncc(Cl)c(N[C@@H]4CCCC[C@H]4NS(C)(=O)=O)n3)cc21 [Example 477, N-{(1R,2R)-2-[5-Chloro-2-(4-methanesulfonyl-1-methyl-2,3,4,5-tetrahydro-1H-benzo[e][1,4]diazepin-8-ylamino)-pyrimidin-4-ylamino]-cyclohexyl}-methanesulfonamide] | < 100 | 1000 to 10000

From patent US8148391B2 (Cephalon, Inc., priority 2006, dated 2012)
